# Assay results from the NIST ThermoML archive (doi:10.1021/je800110r).
# Values joined by “and” are separate entries in the source; they are usually repeats but may differ in a detail not shown here. Identical values can stand only once. ± gives the expanded uncertainty stated by the source.
# Conditions: Liquid, Vibrating tube method
compound,measurement,setting,value
CCCCCCCCCC [decane],mass density,"283.14 K, 21786 kPa",752.1 ± 2 kg/m3
same,mass density,"283.14 K, 21835 kPa",752.2 ± 2 kg/m3
same,mass density,"283.14 K, 21866 kPa",752.3 ± 2 kg/m3
same,mass density,"283.14 K, 22948 kPa",752.7 ± 2 kg/m3
same,mass density,"283.14 K, 22974 kPa",752.9 ± 2 kg/m3
same,mass density,"283.14 K, 23083 kPa",752.9 ± 2 kg/m3
same,mass density,"283.14 K, 24091 kPa",753.6 ± 2 kg/m3
same,mass density,"283.14 K, 24111 kPa",753.6 ± 2 kg/m3
same,mass density,"283.14 K, 24206 kPa",753.6 ± 2 kg/m3
same,mass density,"283.14 K, 25452 kPa",754.4 ± 2 kg/m3
same,mass density,"283.14 K, 27407 kPa",755.5 ± 2.1 kg/m3
same,mass density,"283.14 K, 27430 kPa",755.5 ± 2.1 kg/m3
same,mass density,"283.14 K, 27471 kPa",755.7 ± 2.1 kg/m3
same,mass density,"283.14 K, 27497 kPa",755.6 ± 2.1 kg/m3
same,mass density,"283.14 K, 27531 kPa",755.7 ± 2.1 kg/m3
same,mass density,"283.14 K, 27558 kPa",755.6 ± 2.1 kg/m3
same,mass density,"283.14 K, 27588 kPa",755.8 ± 2.1 kg/m3
same,mass density,"283.14 K, 29091 kPa",756.5 ± 2.1 kg/m3
same,mass density,"283.14 K, 29172 kPa",756.6 ± 2.1 kg/m3
same,mass density,"283.14 K, 29227 kPa",756.6 ± 2.1 kg/m3
same,mass density,"283.14 K, 29531 kPa",756.9 ± 2.1 kg/m3
same,mass density,"283.14 K, 29628 kPa",756.9 ± 2.1 kg/m3
same,mass density,"283.14 K, 29720 kPa",756.8 ± 2.1 kg/m3
same,mass density,"283.14 K, 29749 kPa",756.9 ± 2.1 kg/m3
same,mass density,"283.14 K, 29785 kPa",756.9 ± 2.1 kg/m3
same,mass density,"283.14 K, 29818 kPa",757 ± 2.1 kg/m3
same,mass density,"283.14 K, 29843 kPa",756.9 ± 2.1 kg/m3
same,mass density,"283.14 K, 29867 kPa",757.1 ± 2.1 kg/m3
same,mass density,"283.14 K, 29895 kPa",757 ± 2.1 kg/m3
same,mass density,"283.14 K, 29928 kPa",757.2 ± 2.1 kg/m3
same,mass density,"283.14 K, 29961 kPa",757 ± 2.1 kg/m3
same,mass density,"283.14 K, 29990 kPa",757.1 ± 2.1 kg/m3
same,mass density,"283.14 K, 30019 kPa",757.1 ± 2.1 kg/m3
same,mass density,"283.14 K, 30044 kPa",757.1 ± 2.1 kg/m3
same,mass density,"283.14 K, 30081 kPa",757.1 ± 2.1 kg/m3
same,mass density,"283.14 K, 30115 kPa",757.2 ± 2.1 kg/m3
same,mass density,"283.14 K, 30145 kPa",757.1 ± 2.1 kg/m3
same,mass density,"283.14 K, 30807 kPa",757.7 ± 2.1 kg/m3
same,mass density,"283.14 K, 30934 kPa",757.6 ± 2.1 kg/m3
same,mass density,"283.14 K, 31526 kPa",758 ± 2.1 kg/m3
same,mass density,"283.14 K, 31540 kPa",758 ± 2.1 kg/m3
same,mass density,"283.14 K, 31581 kPa",758.1 ± 2.1 kg/m3
same,mass density,"283.14 K, 31898 kPa",758.1 ± 2.1 kg/m3
same,mass density,"283.14 K, 31921 kPa",758.2 ± 2.1 kg/m3
same,mass density,"283.14 K, 31938 kPa",758.2 ± 2.1 kg/m3
same,mass density,"283.14 K, 31958 kPa",758.3 ± 2.1 kg/m3
same,mass density,"283.14 K, 31979 kPa",758.2 ± 2.1 kg/m3
same,mass density,"283.14 K, 32000 kPa",758.3 ± 2.1 kg/m3
same,mass density,"283.14 K, 32020 kPa",758.2 ± 2.1 kg/m3
same,mass density,"283.14 K, 32038 kPa",758.2 ± 2.1 kg/m3
same,mass density,"283.14 K, 32070 kPa",758.2 ± 2.1 kg/m3
same,mass density,"283.14 K, 32106 kPa",758.4 ± 2.1 kg/m3
same,mass density,"283.14 K, 32127 kPa",758.3 ± 2.1 kg/m3
same,mass density,"283.14 K, 32164 kPa",758.3 ± 2.1 kg/m3
same,mass density,"283.14 K, 32190 kPa",758.4 ± 2.1 kg/m3
same,mass density,"283.14 K, 32578 kPa",758.6 ± 2.1 kg/m3
same,mass density,"283.14 K, 33321 kPa",759.1 ± 2.1 kg/m3
same,mass density,"283.14 K, 33347 kPa",759 ± 2.1 kg/m3
same,mass density,"283.14 K, 33367 kPa",759 ± 2.1 kg/m3
same,mass density,"283.14 K, 33396 kPa",759 ± 2.1 kg/m3
same,mass density,"283.14 K, 33425 kPa",758.9 ± 2.1 kg/m3
same,mass density,"283.14 K, 33445 kPa",759 ± 2.1 kg/m3
same,mass density,"283.14 K, 33471 kPa",759.1 ± 2.1 kg/m3
same,mass density,"283.14 K, 33494 kPa",759.1 ± 2.1 kg/m3
same,mass density,"283.14 K, 33514 kPa",759 ± 2.1 kg/m3
same,mass density,"283.14 K, 34282 kPa",759.5 ± 2.1 kg/m3
same,mass density,"283.14 K, 34384 kPa",759.6 ± 2.1 kg/m3
same,mass density,"283.14 K, 34405 kPa",759.6 ± 2.1 kg/m3
same,mass density,"283.14 K, 34424 kPa",759.7 ± 2.1 kg/m3
same,mass density,"283.14 K, 34465 kPa",759.7 ± 2.1 kg/m3
same,mass density,"283.15 K, 312 kPa",737.7 ± 2 kg/m3 and 737.6 ± 2 kg/m3
same,mass density,"283.15 K, 314 kPa",737.5 ± 2 kg/m3
same,mass density,"283.15 K, 361 kPa",737.6 ± 2 kg/m3
same,mass density,"283.15 K, 417 kPa",737.6 ± 2 kg/m3
same,mass density,"283.15 K, 446 kPa",737.8 ± 2 kg/m3
same,mass density,"283.15 K, 603 kPa",737.9 ± 2 kg/m3
same,mass density,"283.15 K, 1468 kPa",738.4 ± 2 kg/m3
same,mass density,"283.15 K, 1599 kPa",738.6 ± 2 kg/m3
same,mass density,"283.15 K, 1655 kPa",738.6 ± 2 kg/m3
same,mass density,"283.15 K, 1727 kPa",738.5 ± 2 kg/m3
same,mass density,"283.15 K, 1798 kPa",738.8 ± 2 kg/m3
same,mass density,"283.15 K, 1897 kPa",738.7 ± 2 kg/m3
same,mass density,"283.15 K, 1959 kPa",738.9 ± 2 kg/m3
same,mass density,"283.15 K, 2028 kPa",738.8 ± 2 kg/m3
same,mass density,"283.15 K, 2118 kPa",738.9 ± 2 kg/m3
same,mass density,"283.15 K, 2175 kPa",739 ± 2 kg/m3
same,mass density,"283.15 K, 2229 kPa",739 ± 2 kg/m3
same,mass density,"283.15 K, 2291 kPa",739.1 ± 2 kg/m3
same,mass density,"283.15 K, 2327 kPa",739.1 ± 2 kg/m3
same,mass density,"283.15 K, 2370 kPa",739 ± 2 kg/m3
same,mass density,"283.15 K, 2425 kPa",739.1 ± 2 kg/m3
same,mass density,"283.15 K, 2520 kPa",739.2 ± 2 kg/m3
same,mass density,"283.15 K, 2614 kPa",739.3 ± 2 kg/m3
same,mass density,"283.15 K, 2634 kPa",739.3 ± 2 kg/m3
same,mass density,"283.15 K, 2647 kPa",739.4 ± 2 kg/m3
same,mass density,"283.15 K, 2708 kPa",739.4 ± 2 kg/m3
same,mass density,"283.15 K, 2730 kPa",739.4 ± 2 kg/m3
same,mass density,"283.15 K, 2749 kPa",739.3 ± 2 kg/m3
same,mass density,"283.15 K, 2767 kPa",739.4 ± 2 kg/m3
same,mass density,"283.15 K, 2789 kPa",739.4 ± 2 kg/m3
same,mass density,"283.15 K, 2807 kPa",739.5 ± 2 kg/m3
same,mass density,"283.15 K, 2822 kPa",739.5 ± 2 kg/m3
same,mass density,"283.15 K, 2835 kPa",739.4 ± 2 kg/m3
same,mass density,"283.15 K, 2864 kPa",739.6 ± 2 kg/m3
same,mass density,"283.15 K, 3136 kPa",739.7 ± 2 kg/m3
same,mass density,"283.15 K, 3226 kPa",739.7 ± 2 kg/m3
same,mass density,"283.15 K, 3273 kPa",739.9 ± 2 kg/m3
same,mass density,"283.15 K, 3287 kPa",739.8 ± 2 kg/m3
same,mass density,"283.15 K, 3296 kPa",739.8 ± 2 kg/m3
same,mass density,"283.15 K, 3307 kPa",739.9 ± 2 kg/m3
same,mass density,"283.15 K, 3341 kPa",739.9 ± 2 kg/m3
same,mass density,"283.15 K, 3352 kPa",739.8 ± 2 kg/m3
same,mass density,"283.15 K, 3361 kPa",739.8 ± 2 kg/m3
same,mass density,"283.15 K, 3373 kPa",739.9 ± 2 kg/m3
same,mass density,"283.15 K, 3380 kPa",740 ± 2 kg/m3
same,mass density,"283.15 K, 3390 kPa",739.9 ± 2 kg/m3
same,mass density,"283.15 K, 3400 kPa",739.8 ± 2 kg/m3
same,mass density,"283.15 K, 3408 kPa",740 ± 2 kg/m3
same,mass density,"283.15 K, 3417 kPa",739.9 ± 2 kg/m3
same,mass density,"283.15 K, 3426 kPa",740 ± 2 kg/m3
same,mass density,"283.15 K, 3434 kPa",739.9 ± 2 kg/m3
same,mass density,"283.15 K, 3443 kPa",739.8 ± 2 kg/m3
same,mass density,"283.15 K, 3452 kPa",740 ± 2 kg/m3
same,mass density,"283.15 K, 3461 kPa",739.9 ± 2 kg/m3
same,mass density,"283.15 K, 3471 kPa",740 ± 2 kg/m3
same,mass density,"283.15 K, 3485 kPa",740 ± 2 kg/m3
same,mass density,"283.15 K, 3496 kPa",739.9 ± 2 kg/m3
same,mass density,"283.15 K, 3507 kPa",740.1 ± 2 kg/m3
same,mass density,"283.15 K, 3517 kPa",740 ± 2 kg/m3
same,mass density,"283.15 K, 3528 kPa",739.9 ± 2 kg/m3
same,mass density,"283.15 K, 3539 kPa",740 ± 2 kg/m3
same,mass density,"283.15 K, 3552 kPa",740 ± 2 kg/m3
same,mass density,"283.15 K, 3563 kPa",740.1 ± 2 kg/m3
same,mass density,"283.15 K, 3575 kPa",740 ± 2 kg/m3
same,mass density,"283.15 K, 3586 kPa",740.2 ± 2 kg/m3
same,mass density,"283.15 K, 3601 kPa",740 ± 2 kg/m3
same,mass density,"283.15 K, 3612 kPa",740.1 ± 2 kg/m3
